Test results reported in ChEMBL document CHEMBL3046414, “Synthesis, anticancer, anti-HIV-1, and antimicrobial activity of some tricyclic triazino and triazolo[4,3-e]purine derivatives” (Med Chem Res, 2012).

Legend:
[1] = test system: Aspergillus niger; test: Antimicrobial activity against Aspergillus niger ATCC 16404 after 48 hr by two-fold serial dilution method; assay type: functional; conditions: ATCC 16404, 48 h
[2] = test system: Bacillus spizizenii; test: Antimicrobial activity against Bacillus subtilis subsp. spizizenii ATCC 6633 after 24 hr by agar cup diffusion technique; assay type: functional
[3] = test system: CCRF-CEM; test: Cytotoxicity against Homo sapiens (human) CEM cells by XTT assay; assay type: cell-based
[4] = test system: Staphylococcus aureus; test: Antimicrobial activity against Staphylococcus aureus NCTC 4163 after 24 hr by agar cup diffusion technique; assay type: functional
[5] = test system: Aspergillus niger; test: Antimicrobial activity against Aspergillus niger ATCC 16404 after 48 hr by agar cup diffusion technique; assay type: functional
[6] = test system: Candida albicans; test: Antimicrobial activity against Candida albicans NCTC 2708 after 48 hr by agar cup diffusion technique; assay type: functional
[7] = test system: Saccharomyces cerevisiae; test: Antimicrobial activity against Saccharomyces cerevisiae ATCC 9763 after 48 hr by agar cup diffusion technique; assay type: functional
[8] = test system: Proteus vulgaris; test: Antimicrobial activity against Proteus vulgaris ATCC 49132 after 24 hr by two-fold serial dilution method; assay type: functional; conditions: ATCC 49132, 24 h
[9] = test system: Proteus vulgaris; test: Antimicrobial activity against Proteus vulgaris ATCC 49132 after 24 hr by agar cup diffusion technique; assay type: functional
[10] = test system: Escherichia coli; test: Antimicrobial activity against Escherichia coli 5933 after 24 hr by agar cup diffusion technique; assay type: functional
[11] = test system: Pseudomonas aeruginosa; test: Antimicrobial activity against Pseudomonas aeruginosa ATCC 9027 after 24 hr by agar cup diffusion technique; assay type: functional
[12] = test system: Human immunodeficiency virus 1; test: Antiviral activity against Human immunodeficiency virus 1 infected CEM cells assessed as inhibition of virus-induced cytopathic effect at 2 X 10^-5 M by XTT assay; assay type: functional; conditions: Human immunodeficiency virus 1, CCRF-CEM
[13] = test system: SF-268; test: Anticancer activity against Homo sapiens (human) SF268 cells assessed as cell growth at 100 uM after 48 hr by Alamar blue assay; assay type: functional; conditions: SF-268, 48 h, read-out: Activity
[14] = test system: MCF7; test: Anticancer activity against Homo sapiens (human) MCF7 cells assessed as cell growth at 100 uM after 48 hr by Alamar blue assay; assay type: functional; conditions: MCF7, 48 h, read-out: Activity
[15] = test system: NCI-H460; test: Anticancer activity against Homo sapiens (human) NCI-H460 cells assessed as cell growth at 100 uM after 48 hr by Alamar blue assay; assay type: functional; conditions: NCI-H460, 48 h, read-out: Activity
[16] = test system: Salmonella typhi; test: Antimicrobial activity against Salmonella enterica subsp. enterica serovar Typhi ATCC 13311 after 24 hr by agar cup diffusion technique; assay type: functional
[17] = test system: Staphylococcus aureus; test: Antimicrobial activity against Staphylococcus aureus NCTC 4163 after 24 hr by two-fold serial dilution method; assay type: functional; conditions: NCTC 4163, 24 h
[18] = test system: Human immunodeficiency virus 1; test: Antiviral activity against Human immunodeficiency virus 1 infected CEM cells assessed as inhibition of virus-induced cytopathic effect at 2 X 10^-4 M by XTT assay; assay type: functional; conditions: Human immunodeficiency virus 1, CCRF-CEM
[19] = test system: Malme-3M; test: Cytotoxicity against Homo sapiens (human) MALME-3M cells after 48 hr by SRB assay; assay type: functional
[20] = Cytotoxicity against Homo sapiens (human) Breast cancer cell after 48 hr by SRB assay; assay type: functional; conditions: Cancer cell lines
[21] = Cytotoxicity against Homo sapiens (human) Prostate cancer cell after 48 hr by SRB assay; assay type: functional; conditions: Cancer cell lines
[22] = Cytotoxicity against Homo sapiens (human) Ovarian cancer cell after 48 hr by SRB assay; assay type: functional; conditions: Cancer cell lines
[23] = Cytotoxicity against Homo sapiens (human) Renal cancer cell after 48 hr by SRB assay; assay type: functional; conditions: Cancer cell lines
[24] = Cytotoxicity against Homo sapiens (human) CNS cancer cell after 48 hr by SRB assay; assay type: functional; conditions: Cancer cell lines
[25] = Cytotoxicity against Homo sapiens (human) Melanoma cell after 48 hr by SRB assay; assay type: functional
[26] = Cytotoxicity against Homo sapiens (human) Colon cancer cell after 48 hr by SRB assay; assay type: functional; conditions: Cancer cell lines
[27] = Cytotoxicity against Homo sapiens (human) Leukemia cell after 48 hr by SRB assay; assay type: functional
[28] = Cytotoxicity against Homo sapiens (human) NSCLC cell after 48 hr by SRB assay; assay type: functional
[29] = test system: CCRF-CEM; test: Cytotoxicity against Homo sapiens (human) CCRF-CEM cells after 48 hr by SRB assay; assay type: functional
[30] = test system: CAKI-1; test: Cytotoxicity against Homo sapiens (human) CAKI-1 cells after 48 hr by SRB assay; assay type: functional; conditions: CAKI-1, 48 h
[31] = test system: UO-31; test: Cytotoxicity against Homo sapiens (human) UO31 cells after 48 hr by SRB assay; assay type: functional; conditions: UO-31, 48 h
[32] = test system: A498; test: Cytotoxicity against Homo sapiens (human) A498 cells after 48 hr by SRB assay; assay type: functional; conditions: A498, 48 h
[33] = test system: T47D; test: Cytotoxicity against Homo sapiens (human) T47D cells after 48 hr by SRB assay; assay type: functional
[34] = test system: ACHN; test: Cytotoxicity against Homo sapiens (human) ACHN cells after 48 hr by SRB assay; assay type: functional
[35] = test system: HOP-92; test: Cytotoxicity against Homo sapiens (human) HOP92 cells after 48 hr by SRB assay; assay type: functional; conditions: HOP-92, 48 h
[36] = test system: NCI-H226; test: Cytotoxicity against Homo sapiens (human) NCI-H226 cells after 48 hr by SRB assay; assay type: functional; conditions: NCI-H226, 48 h
[37] = test system: SK-MEL-5; test: Cytotoxicity against Homo sapiens (human) SK-MEL-5 cells after 48 hr by SRB assay; assay type: functional; conditions: SK-MEL-5, 48 h
[38] = test system: Pseudomonas aeruginosa; test: Antimicrobial activity against Pseudomonas aeruginosa ATCC 9027 after 24 hr by two-fold serial dilution method; assay type: functional; conditions: ATCC 9027, 24 h

Cn1c(=O)c2nc3[nH]nc(C(=O)O)c(=O)n3c2n(C)c1=O
MIC [1]: < 200 µg/mL
inhibition zone (IZ) [2]: 14 mm
IC50 [3]: > 200 µM
inhibition zone (IZ) [4]: 14 mm
inhibition zone (IZ) [5]: 20 mm
inhibition zone (IZ) [6]: 13 mm
inhibition zone (IZ) [7]: 14 mm
MIC [8]: < 200 µg/mL
inhibition zone (IZ) [9]: 21 mm
inhibition zone (IZ) [10]: 13 mm
inhibition zone (IZ) [11]: 16 mm
inhibition at 20 µM [12]: 3.73%

Cn1c(=O)c2c(n(C)c1=O)n1c(-c3ccccc3)nnc1n2C
growth at 100 µM [13]: 90%
growth at 100 µM [14]: 84%
growth at 100 µM [15]: 98%
inhibition zone (IZ) [16]: 11 mm
inhibition zone (IZ) [2]: 15 mm
inhibition zone (IZ) [5]: 16 mm
inhibition zone (IZ) [6]: 12 mm
inhibition zone (IZ) [7]: 15 mm
inhibition zone (IZ) [9]: 19 mm
inhibition zone (IZ) [10]: 14 mm
inhibition zone (IZ) [11]: 17 mm

CC(=O)c1n[nH]c2nc3c(=O)n(C)c(=O)n(C)c3n2c1=O
inhibition zone (IZ) [2]: 14 mm
IC50 [3]: > 200 µM
inhibition zone (IZ) [6]: 13 mm
inhibition zone (IZ) [7]: 13 mm
MIC [8]: < 100 µg/mL
inhibition zone (IZ) [9]: 23 mm
inhibition zone (IZ) [10]: 14 mm
inhibition at 20 µM [12]: 1.43%

Cn1c(=O)c2c(n(C)c1=O)n1c(SCc3ccccc3)nnc1n2C
IC50 [3]: > 200 µM
inhibition zone (IZ) [4]: 26 mm
inhibition zone (IZ) [6]: 11 mm
inhibition zone (IZ) [7]: 14 mm
MIC [17]: < 25 µg/mL
inhibition zone (IZ) [9]: 18 mm
inhibition zone (IZ) [10]: 12 mm
inhibition zone (IZ) [11]: 19 mm
inhibition at 200 µM [18]: 35.5%

Cn1c(=O)c2nc3[nH]nc(C#N)c(=N)n3c2n(C)c1=O
growth at 100 µM [13]: 47%
GI50 [19]: 25.2 µM
growth at 100 µM [14]: 14%
growth at 100 µM [15]: 62%
inhibition zone (IZ) [16]: 12 mm
inhibition zone (IZ) [2]: 14 mm
GI50 [20]: 91.6 µM
TGI [20]: 100 µM
GI50 [21]: 86.3 µM
TGI [21]: 100 µM
GI50 [22]: 97.9 µM
TGI [22]: 100 µM
GI50 [23]: 72.2 µM
TGI [23]: 100 µM
GI50 [24]: 98 µM
TGI [24]: 100 µM
GI50 [25]: 81.6 µM
TGI [25]: 96.9 µM
GI50 [26]: 100 µM
TGI [26]: 100 µM
GI50 [27]: 94.6 µM
TGI [27]: 100 µM
GI50 [28]: 87.3 µM
TGI [28]: 100 µM
inhibition zone (IZ) [5]: 12 mm
inhibition zone (IZ) [6]: 12 mm
inhibition zone (IZ) [7]: 14 mm
inhibition zone (IZ) [9]: 19 mm
inhibition zone (IZ) [10]: 14 mm
inhibition zone (IZ) [11]: 18 mm
GI50 [29]: 67.8 µM
GI50 [30]: 51.7 µM
GI50 [31]: 50.6 µM
GI50 [32]: 51.4 µM
GI50 [33]: 32.9 µM
GI50 [34]: 44.3 µM
GI50 [35]: 31.8 µM
GI50 [36]: 54 µM
GI50 [37]: 45.9 µM

CCOC(=O)c1n[nH]c2nc3c(=O)n(C)c(=O)n(C)c3n2c1=N
growth at 100 µM [13]: 98%
growth at 100 µM [14]: 93%
growth at 100 µM [15]: 99%
inhibition zone (IZ) [2]: 14 mm
inhibition zone (IZ) [4]: 16 mm
inhibition zone (IZ) [6]: 17 mm
inhibition zone (IZ) [7]: 15 mm
MIC [8]: < 100 µg/mL
inhibition zone (IZ) [9]: 22 mm
inhibition zone (IZ) [10]: 15 mm
inhibition zone (IZ) [11]: 20 mm

Cn1c(=O)c2c(n(C)c1=O)n1c(-c3ccc(Cl)cc3)nnc1n2C
growth at 100 µM [13]: 90%
growth at 100 µM [14]: 82%
growth at 100 µM [15]: 95%
inhibition zone (IZ) [2]: 13 mm
inhibition zone (IZ) [4]: 22 mm
inhibition zone (IZ) [6]: 12 mm
inhibition zone (IZ) [7]: 14 mm
MIC [8]: < 100 µg/mL
MIC [38]: < 200 µg/mL
MIC [17]: < 100 µg/mL
inhibition zone (IZ) [9]: 25 mm
inhibition zone (IZ) [10]: 12 mm
inhibition zone (IZ) [11]: 21 mm

CSc1nnc2n(C)c3c(=O)n(C)c(=O)n(C)c3n12
IC50 [3]: > 200 µM
inhibition zone (IZ) [4]: 20 mm
inhibition zone (IZ) [6]: 11 mm
inhibition zone (IZ) [7]: 12 mm
MIC [38]: < 200 µg/mL
MIC [17]: < 200 µg/mL
inhibition zone (IZ) [9]: 19 mm
inhibition zone (IZ) [10]: 12 mm
inhibition zone (IZ) [11]: 20 mm
inhibition at 200 µM [18]: 4.86%
